Test results: patent US20090270469A1, “SUBSTITUTED OXAZOLIDINONES” (AUSPEX PHARMACEUTICALS, INC., priority 2008, published 2009)

Columns and labels:
[1] = 400 mg oral dose under fasted conditions; cited from earlier work
human liver microsomes = assay: In vitro human liver microsomal (HLM) stability assay; format: in vitro ADME; settings: human liver microsomes 1 mg/mL, 1 μM compound, 37° C., vs non-isotopically enriched drug
Procedure: Liver microsomal stability assays were conducted at 1 mg per mL liver microsome protein with an NADPH-generating system in 2% NaHCO3 (2.2 mM NADPH, 25.6 mM glucose 6-phosphate, 6 units per mL glucose 6-phosphate dehydrogenase and 3.3 mM MgCl2). Test compounds were prepared as solutions in 20% acetonitrile-water. These solutions were added to the assay mixture (final assay concentration 1 μM) and incubated at 37° C. Final concentration of acetonitrile in the assay should be <1%. Aliquots (50 μL) were collected at the these timpoints: […], and 1 hours, and diluted with ice cold acetonitrile (200 μL) to stop the reactions. Samples were centrifuged at 12,000 RPM for 10 minutes to precipitate proteins. Supernatants were transferred to micro centrifuge tubes and stored for LC/MS/MS analysis of the degradation half-life of the test compounds.
Results of in vitro Human Liver Microsomal (HLM) Stability Assay

SMILES	% increase of HLM degradation half-life, bin 0%-50% (human liver microsomes)	also measured
Cc1cc(C)cc(OCC2CNC(=O)O2)c1 (centres unmarked) [Example 1, 5-[(3,5-dimethylphenoxy)methyl]oxazolidin-2-one]		terminal half-life [1]: 9.0 ± 4.8 h; time of peak plasma concentrations [1]: approximately 3 hours; % increase of HLM degradation half-life, bin −25%-0% (human liver microsomes): + (−25%-0%)
[2H]C1([2H])NC(=O)OC1([2H])C([2H])([2H])Oc1cc(C)cc(C)c1 (centres unmarked) [Example 5, 5-[(3,5-Dimethylphenoxy)methyl-d2]oxazolidin-4,4,5-d3-2-one]	+ (0%-50%)	
[2H]C([2H])([2H])c1cc(OCC2CNC(=O)O2)cc(C([2H])([2H])[2H])c1 (centres unmarked) [Example 2, 5-[(3,5-dimethyl-d6-phenoxy)methyl]oxazolidin-2-one]	+ (0%-50%)	
[2H]C([2H])([2H])c1cc(OC([2H])([2H])C2([2H])OC(=O)NC2([2H])[2H])cc(C([2H])([2H])[2H])c1 (centres unmarked) [Example 6, 5-[(3,5-Dimethyl-d6-phenoxy)methyl-d2]oxazolidin-4,4,5-d3-2-one]	+ (0%-50%)	
[2H]C([2H])([2H])c1cc(OC([2H])([2H])C2CNC(=O)O2)cc(C([2H])([2H])[2H])c1 (centres unmarked) [Example 4, 5-[(3,5-Dimethyl-d6-phenoxy)methyl-d2]oxazolidin-2-one]	+ (0%-50%)	
[2H]C([2H])(Oc1cc(C)cc(C)c1)C1CNC(=O)O1 (centres unmarked) [Example 3, 5-[(3,5-dimethyl-phenoxy)methyl-d2]oxazolidin-2-one]	+ (0%-50%)	
